Experiment in all cases: Post-emergence action against weeds, greenhouse pot test, visual scoring
Holding throughout (assay type): in vivo

The test system of test [1] is Abuthilon theophrasti (ABUTH). The settings on record: Abutilon theophrasti, 240 h, read-out: % activity found. The procedure:
(§1) Seeds or rhizome pieces of mono- and dicotyledonous harmful and useful plants were placed in peat pots (diameter 4 cm) filled with sandy loam and then covered with soil. The pots were kept in a greenhouse under optimum conditions. In addition, harmful plants encountered in paddy rice cultivation were cultivated in pots with a water level 2 cm above the soil surface.
(§2) About three weeks after the start of the cultivation, the test plants were treated at the 2- to 3-leaf stage. The herbicides, formulated as powder or liquid concentrates, were, either alone or in the combinations according to the invention, sprayed in various dosages on to the green parts of the plants using an application rate of 600 l of water/ha (converted). For further cultivation of the plants, the pots were then again kept under optimum conditions in a greenhouse.
(§3) The visual scoring of the herbicidal effects was carried out in intervals up to 21 days after the treatment. Scoring was carried out in percent in comparison to the untreated control plants. 0%=no herbicidal activity, 100%=complete herbicidal activity=complete kill.
(§4) The percentages from the treatments with the herbicides alone (=individual application) and with the combinations according to the invention (=mixtures) were employed to calculate interactions using the method of Colby. When the observed efficacies of the mixtures exceed the formal sum of the values of the tests with individual applications, they also exceed the expected value according to Colby, which is calculated using the formula below (cf. S. R. Colby; in Weeds 15 (1967) pp. 20 to 22):
(§5) Here: • A, B=activity of components A and B in percent at a dosage of a and b g of ai/ha (=gramm of active substance per hectare), respectively. • E=expected value in % at a dosage of a+b g of ai/ha.

In test [2] the test system is Amaranthus retroflexus (AMARE). The settings on record: read-out: % activity found; for inhibition at 12 g/ha: A-1 12 g of ai/ha. As for the experimental part: as §1, §2, §3, §4, §5
Another test relates to Avena fatua (AVEFA). Particulars: read-out: % activity found; for inhibition at 30 g/ha / inhibition at 90 g/ha: AVEFA. The procedure:
as §1, §2, §3, §4, §5

Test [3] relates to Cyperus esculentus (CYPES). Particulars: 504 h, read-out: % activity found. As for the experimental part: as §1, §2, §3, §4, §5
The test system of test [4] is Fallopia (ex Polygonum) convolvulus (POLCO). The settings on record: read-out: % activity found. As for the experimental part: as §1, §2, §3, §4, §5
For test [5], the system named is Matricaria inodora (MATIN). Particulars: Tripleurospermum inodorum, read-out: % activity found. The procedure:
as §1, §2, §3, §4, §5

In a further test the test system is Oryza sativa (ORYSA). The settings on record: read-out: % activity found; for inhibition at 90 g/ha: ORYSA, B3-3 90 g of ai/ha. The procedure:
as §1, §2, §3, §4, §5

In test [6] the test system is Pharbitis purpurea (PHBPU). The settings on record: Ipomoea purpurea, read-out: % activity found; for inhibition at 4 g/ha / inhibition at 12 g/ha: PHBPU; for inhibition at 4 g/ha: A-1 4 g of ai/ha; for inhibition at 12 g/ha: A-1 12 g of ai/ha. The procedure:
as §1, §2, §3, §4, §5

Test [7] has as its system Triticum aestivum (TRZAS). Particulars: read-out: % activity found. The procedure: as §1, §2, §3, §4, §5
A further test has as its system Viola tricolor (VIOTR). The settings on record: read-out: % activity found. The procedure: as §1, §2, §3, §4, §5
The subject of the next test is Zea mays (ZEAMX). The settings on record: read-out: % activity found; for inhibition at 30 g/ha / inhibition at 90 g/ha: ZEAMX. As for the experimental part: as §1, §2, §3, §4, §5
Test [8] deals with Alopecurus myosuroides (ALOMY). Particulars: 504 h, read-out: % activity found. The procedure: as §1, §2, §3, §4, §5
Test [9] concerns Lolium multiflorum (LOLMU). Particulars: read-out: % activity found. As for the experimental part: as §1, §2, §3, §4, §5
The subject of a further test is Setaria viridis (SETVI). Particulars: 504 h, read-out: % activity found. As for the experimental part:
as §1, §2, §3, §4, §5

Where [10] appears, read: 240 h, 10 DAT, B3-1 30 g of ai/ha.
Setting [11] is: 240 h, 10 DAT, B3-1 90 g of ai/ha.
Setting [12] is: 504 h, 21 DAT, B3-3 30 g of ai/ha.
Setting [13] is: 504 h, 21 DAT, B3-3 90 g of ai/ha.

Like-named read-outs stand apart in the source and are kept apart here.

On to `CCSC(C)CC1CC(=O)C(/C(CC)=N/OC/C=C/Cl)=C(O)C1` (racemic) [B2-3, (E,E)-(±)-2-[1-[[(3-chloro-2-propenyl)oxy]imino]propyl]-5-[2-(ethylthio)propyl]-3-hydroxy-2-cyclohexen-1-one], for which the inhibition at 20 g/ha in [1] came to 0%; in test [2] (240 h), 0%; in test [2] (504 h), 0%; in the test on Avena fatua (AVEFA) (504 h), 50%; in test [3] it was 0%; in test [4] (240 h), 0%. Further, the inhibition at 20 g/ha in test [4] (504 h) was determined as 0%; in test [5] (504 h) it was 0%; in the test on Oryza sativa (ORYSA) (240 h) it was 90%; in the test on Oryza sativa (ORYSA) (504 h) it was 95%; in test [6] (240 h) it was 0%; in [6] (504 h), 0%. Further, the inhibition at 20 g/ha in test [7] (240 h) came to 40%; in the test on Viola tricolor (VIOTR) (240 h), 0%; in the test on Viola tricolor (VIOTR) (504 h), 0%. Moreover, the inhibition at 60 g/ha in [1], in test [2] (240 h), in test [2] (504 h), in test [3], in test [4] (240 h) and in [4] (504 h) was 0% each time. For the same compound, the inhibition at 60 g/ha (in test [5] (240 h); in test [5] (504 h); in [6] (240 h); in test [6] (504 h); with Viola tricolor (VIOTR) (240 h); with Viola tricolor (VIOTR) (504 h)) was 0% in each case. Besides, in the test with Zea mays (ZEAMX) (240 h), the inhibition at 60 g/ha was 80%.

`COc1nc(OC)nc(C(=O)c2cccc(F)c2N(C)S(=O)(=O)C(F)F)n1` [A-1]: the inhibition at 4 g/ha in [1] (ABUTH, 10 DAT, A-1 4 g of ai/ha) stood at 70%; in test [2] (504 h, AMARE, 21 DAT, A-1 4 g of ai/ha) it was 70%; in test [4] (240 h, POLCO, 10 DAT, A-1 4 g of ai/ha), 70%; in test [5] (240 h, MATIN, 10 DAT, A-1 4 g of ai/ha), 60%; in test [6] (240 h, 10 DAT) it was 60%; in test [6] (504 h, 21 DAT), 60%. The inhibition at 12 g/ha came out at 70% in test [1] (ABUTH, 10 DAT, A-1 12 g of ai/ha); 70% in test [2] (240 h, AMARE, 10 DAT); 75% in test [2] (504 h, AMARE, 21 DAT); 70% in test [4] (240 h, POLCO, 10 DAT, A-1 12 g of ai/ha); 60% in test [6] (240 h, 10 DAT); 65% in test [6] (504 h, 21 DAT). The inhibition at 12 g/ha in the test with Viola tricolor (VIOTR) (240 h, VIOTR, 10 DAT, A-1 12 g of ai/ha) is 20%.

As to `CS(=O)(=O)c1ccc(C(=O)C2C(=O)CCCC2=O)c([N+](=O)[O-])c1` [B3-1, 2-[4-(methylsulfonyl)-2-nitrobenzoyl]-1,3-cyclohexanedione], the inhibition at 30 g/ha in test [8] (ALOMY, 21 DAT, B3-1 30 g of ai/ha) amounted to 0%; in the test with Avena fatua (AVEFA) (setting [10]) it was 0%; in the test on Avena fatua (AVEFA) (504 h, 21 DAT, B3-1 30 g of ai/ha), 0%; in [9] (240 h, LOLMU, 10 DAT, B3-1 30 g of ai/ha), 30%; in [9] (504 h, LOLMU, 21 DAT, B3-1 30 g of ai/ha), 0%; with Setaria viridis (SETVI) (SETVI, 21 DAT, B3-1 30 g of ai/ha), 0%. The inhibition at 30 g/ha in the test on Zea mays (ZEAMX) (setting [10]) is 0%. Also, the inhibition at 90 g/ha was 30% in [8] (ALOMY, 21 DAT, B3-1 90 g of ai/ha); 0% with Avena fatua (AVEFA) (setting [11]); 0% in the test on Avena fatua (AVEFA) (504 h, 21 DAT, B3-1 90 g of ai/ha); 20% with Setaria viridis (SETVI) (SETVI, 21 DAT, B3-1 90 g of ai/ha); 30% in test [7] (504 h, TRZAS, 21 DAT, B3-1 90 g of ai/ha); 20% with Zea mays (ZEAMX) (setting [11]).

Take `CS(=O)(=O)c1ccc(C(=O)C2C(=O)CCCC2=O)c(Cl)c1` [B3-2, 2-[2-chloro-4-(methylsulfonyl)benzoyl]-1,3-cyclohexanedione]: the inhibition at 70 g/ha (in test [8]; with Avena fatua (AVEFA) (240 h); in the test with Avena fatua (AVEFA) (504 h); in [9] (504 h); with Setaria viridis (SETVI); in the test with Zea mays (ZEAMX) (240 h)) was 0% in each case. Further, the inhibition at 70 g/ha in the test with Zea mays (ZEAMX) (504 h) is 0%. Moreover, the inhibition at 210 g/ha in [8] is 20%; in the test on Avena fatua (AVEFA) (504 h), 0%; with Setaria viridis (SETVI), 20%; in the test with Zea mays (ZEAMX) (240 h), 0%; with Zea mays (ZEAMX) (504 h), 0%.

Take `CS(=O)(=O)c1ccc(C(=O)C2C(=O)CCCC2=O)c(Cl)c1COCC(F)(F)F` [B3-3, 2-[2-chloro-4-(methylsulfonyl)-3-[(2,2,2-trifluoroethoxy)methyl]benzoyl]-1,3-cyclohexanedione]: the inhibition at 30 g/ha in test [8] (ALOMY, 21 DAT, B3-3 30 g of ai/ha) was determined as 40%; with Avena fatua (AVEFA) (setting [12]), 0%; in test [9] (504 h, LOLMU, 21 DAT, B3-3 30 g of ai/ha), 20%; in the test with Setaria viridis (SETVI) (SETVI, 21 DAT, B3-3 30 g of ai/ha), 50%; in the test with Zea mays (ZEAMX) (240 h, 10 DAT, B3-3 30 g of ai/ha) it was 0%; in the test on Zea mays (ZEAMX) (setting [12]), 0%. Also, the inhibition at 90 g/ha worked out at 0% with Avena fatua (AVEFA) (setting [13]); 50% in test [9] (504 h, LOLMU, 21 DAT, B3-3 90 g of ai/ha); 40% in the test on Oryza sativa (ORYSA) (240 h, 10 DAT); 30% in the test on Oryza sativa (ORYSA) (504 h, 21 DAT); 0% in the test with Zea mays (ZEAMX) (240 h, 10 DAT, B3-3 90 g of ai/ha); 0% in the test on Zea mays (ZEAMX) (setting [13]).

For the origin of these results see patent publication US20100093542A1, “HERBICIDE COMBINATION COMPRISING DIMETHOXYTRIAZINYL SUBSTITUTED DIFLUOROMETHANESULFONYLANILIDES” (BAYER CORPSCIENCE AG, priority 2008, published 2010).
